One assay has as its target T1, hSiglec-1 (Homo sapiens, UniProt Q9BZZ2).
T1 construct: gene SIGLEC1; monomeric Siglec-1 fragment from CHO Lec1 cells
The assay can be described thus: direct ESI native mass spectrometry titration. The format is binding.

The target in assay [1] is T2, mSiglec-1 (Mus musculus, UniProt Q62230).
T2 construct: gene Siglec1; monomeric Siglec-1 fragment from CHO Lec1 cells
In words: direct ESI native mass spectrometry titration (no binding in liposome bead assay or ELISA). (ELISA stands for enzyme-linked immunosorbent assay.)

For assay [2], the target named is T2, mSiglec-1. The assay can be described thus: direct ESI native mass spectrometry titration. The format is binding.

This note sets out measurements from PMC11294694, “Dissecting the abilities of murine Siglecs to interact with gangliosides [drawing 1]” (The Journal of Biological Chemistry, 2024).

What is called Kd is the concentration at which binding is half-saturated. Higher therefore signals weaker binding.

T2 sequence (Q62230 20-136 limits assumed): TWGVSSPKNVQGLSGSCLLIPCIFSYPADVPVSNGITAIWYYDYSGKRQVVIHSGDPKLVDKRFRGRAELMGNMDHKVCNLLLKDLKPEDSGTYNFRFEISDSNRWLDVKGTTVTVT
T1 sequence (Q9BZZ2 20-136 limits assumed): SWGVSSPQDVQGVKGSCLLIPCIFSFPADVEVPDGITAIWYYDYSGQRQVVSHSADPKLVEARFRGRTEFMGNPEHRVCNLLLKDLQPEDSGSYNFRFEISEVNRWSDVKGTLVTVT

On to GM1a oligosaccharide, for which the Kd on hSiglec-1 came to 1500 µM; on mSiglec-1 [1] it was 2000 µM.
As to GM1b oligosaccharide, the Kd came to 1200 µM on mSiglec-1 [2] and 890 µM at hSiglec-1.
